Test results: patent US11845959B2, “Identification of factor that promotes human HSC self-renewal” (THE REGENTS OF THE UNIVERSITY OF CALIFORNIA, priority 2016, dated 2023)

Test system: human HSPC
Assay: Flavopiridol treatment of human HSPC, HSPC expansion in culture (FACS, total HSPC expansion over time)
Format: cell-based
Conditions: 100 nM, similarly to MLLT3 overexpression
Excerpt: We investigated whether an effect on transcription elongation by a different factor might change the effect. We determined that Treatment of human HSPC with Flavopiridol, a regulator of transcription elongation machinery, expands HSPC in culture.

CN1CC[C@H](c2c(O)cc(O)c3c(=O)cc(-c4ccccc4Cl)oc23)[C@H](O)C1 [Flavopiridol] was tested, and the “HSPC expansion in culture” value was “sustained HSPC expansion in culture”.
